Measurements reported in US12514833B2, “Combination of ibuprofen and tramadol for relieving pain” (FARMALÍDER, S.A., priority 2019, dated 2026).
Counter-ions that a name gives are not always drawn.

Key:
Assay type in all cases: in vivo, human
[1] = test system: patients with visceral moderate to intense pain after non-oncologic abdominal hysterectomy; assay: Example 3: phase III trial, oral ibuprofen arginate/tramadol HCl (400/37.5), pain after hysterectomy (VAS, rescue medication, adverse effects); conditions: tramadol HCl 50 mg; for Total rescued patients (number) / Total rescued patients (%): 8 doses every 6 hours, 48 hours; for Total rescued patients (number): N = 91/94/98, ibuprofen arginate 400 mg; for Total rescued patients (%) / Rescued patients at 24 h (%) / Rescued patients at 24 h (number) / Average time until rescue: ibuprofen arginate 400 mg; for Rescued patients at 24 h (%) / Rescued patients at 24 h (number): first 24 h of the study
Method: A phase III, multicentre, randomized, double-blind, placebo-controlled, study was performed to assess the compared efficacy and safety of the combination of ibuprofen arginate/tramadol HCl (400 mg ibuprofen/37.5 mg tramadol HCl) administered by the oral route, compared to oral tramadol (50 mg), oral ibuprofen arginate (400 mg ibuprofen) and placebo for treating adult patients (aged 18 or more) suffering from visceral moderate to intense pain after non-oncologic abdominal hysterectomy.
(§1) Pain intensity was assessed using the Visual Analogue Scale (VAS).
The patients selected for the study were adults suffering from moderate to severe pain (VAS 0-100≥40 mm) after total or partial abdominal hysterectomy for benign, non-oncologic disease, which required hospitalization during at least 48 hours.
The patients were divided in four groups, receiving the following medication: • Group 1: ibuprofen arginate/tramadol HCl 400 mg/37.5 mg (91 patients) • Group 2: ibuprofen arginate 400 mg (94 patients) • Group 3: tramadol HCl 50 mg (98 patients) • Group 4: placebo (93 patients)
(§2) The amount of ibuprofen arginate (400 mg) is expressed as the amount of ibuprofen in acidic form.
The combination of ibuprofen arginate/tramadol HCl administered to the patients of Group 1 was in the form of granulate for oral administration (as described in Example 4 below). Each dosage comprised 340 mg of L-arginine.
Patients of Group 2 received the commercial medicine Espidifen® 400 mg, each dose comprising 400 mg of ibuprofen, as 770 mg of ibuprofen arginate.
Patients of Group 3 received the commercial medicine Adolonta® 100 mg/ml oral solution, and a dose of 50 mg of tramadol HCl was administered.
After the surgery, the pain intensity of each patient was evaluated according to the VAS test until reaching the value ≥40 mm. At that moment, each patient was recruited and assigned to one of the four groups in a randomized way and the corresponding medication was administered. A new VAS test was performed after the administration of the first dose of the medication, which was taken as the basal value. Subsequently, 7 more doses of the assigned medication were administered, with an interval of 6 hours between doses, so a total of 8 doses were administered to each patient.
After the administration of the first dosage of each medication, the evolution of the patients was followed until 48 hours after the first dosage, by assessing the change in pain intensity.
After 30 minutes from the first dosage, patients were allowed to request a rescue medication, if needed. Rescue medication was 1 g paracetamol given by the oral route. If a second rescue medication was necessary, a capsule of 575 mg metamizole was administered.
Pain intensity was assessed for each patient at the following time points: 0 (basal), 1, 2, 4, 6, 8, 10, 12, 18, 24, 30, 36, 42 and 48 hours after the administration of the first dosage of the medication. For each of the four groups, the average VAS value was calculated at each time point.

[2] = test system: patients with moderate to intense pain after dental surgery; assay: Example 1: phase III pilot trial, intravenous ibuprofen arginate combined with tramadol, pain after dental surgery (VAS, rescue medication, adverse effects); conditions: for VAS (average value): single iv infusion
Method: A phase III, multicentre, randomized, double-blind, placebo-controlled, pilot study was performed to assess the compared efficacy and safety of intravenous ibuprofen arginate (400 mg) combined with two different doses of tramadol hydrochloride (37.5 and 75 mg) and of intravenous tramadol 100 mg in patients suffering from moderate to intense pain after dental surgery.
as §1
The patients were divided in four groups, receiving the following medication: • Group 1: ibuprofen arginate/tramadol HCl 400 mg/37.5 mg (16 patients) • Group 2: ibuprofen arginate/tramadol HCl 400 mg/75 mg (18 patients) • Group 3: tramadol HCl 100 mg (18 patients) • Group 4: placebo (saline solution) (17 patients)
The amount of ibuprofen arginate (400 mg) is expressed as the amount of ibuprofen in acidic form. The amount of L-arginine in each composition in groups 1 and 2 was 356 mg, which corresponds to a molar ratio ibuprofen:arginine 1:1.054.
The compositions of groups 1 to 3 were aqueous solutions of the drugs prepared with water for injection. Other excipients included in the compositions were sodium chloride, used as tonicity agent, to reach an osmolality of 310-360 mOsm/Kg, and hydrochloric acid and sodium hydroxide to adjust the pH of the solution to a value in the range 6.8-7.8. The volume of the composition in all groups was 100 ml, which was infused intravenously during 30 minutes, in a single administration. The preparation of the composition used for Group 1 is analogous as disclosed in Example 5. The preparation of the composition used for Group 2 was equivalent, but using 75 mg of tramadol HCl instead of 37.5 mg.
Thus, after the dental surgery, the pain intensity of each patient was evaluated according to the VAS test until reaching the value ≥55 mm. At that moment, the patient was assigned to one of the four groups in a randomized way and the corresponding medication was administered not later than 15 minutes after randomization and not later than 25 minutes after VAS test. A new VAS test was performed at the beginning of the infusion, which was taken as the basal value.
After the administration of each medication, the evolution of patients was followed during 4 hours, by assessing the change in pain intensity.
Patients were allowed to ask for rescue medication during that period, starting 30 minutes after the administration of each treatment. Rescue medication was 1 g paracetamol given by the oral route. If a second rescue medication was necessary, a capsule of 575 mg metamizole was administered. If rescue medication was administered before 4 hours after the administration of the study medication, the patient left the study (but remained still included for assessing safety parameters and was under monitoring for further 4 hours).
Pain intensity was assessed for each patient at the following time points: 0 (basal), 15, 30, 45, 60, 75, 90, 105, 120, 150, 180, 210, and 240 minutes after the administration of the medication. For each of the four groups, the average VAS value was calculated.

[3] = test system: patients with moderate to intense somatic pain after dental surgery; assay: Example 2: phase III trial, oral ibuprofen arginate/tramadol (400/37.5), pain after dental surgery (VAS, rescue medication, safety); conditions: 4 doses every 6 hours, 24 hours follow-up, tramadol HCl 50 mg; for Number of rescued patients: N = 95/97/98, ibuprofen arginate 400 mg; for % of rescued patients: ibuprofen arginate 400 mg
Method: A phase III, multicentre, randomized, double-blind, placebo-controlled study was performed to assess the compared efficacy and safety of the combination of ibuprofen arginate/tramadol HCl (400 mg ibuprofen/37.5 mg tramadol HCl) administered by the oral route, compared to oral tramadol (50 mg), oral ibuprofen arginate (400 mg ibuprofen) and placebo for treating adult patients (aged 18 or more) suffering from moderate to intense somatic pain after dental surgery.
as §1
The patients selected for the study were adults suffering from moderate to severe pain (VAS 0-100≥45 mm) after surgical extraction of at least two third molars, if only two third molars were extracted, they should be ipsilateral and at least one of them impacted, involving bone removal.
The patients were divided in four groups, receiving the following medication: • Group 1: ibuprofen arginate/tramadol HCl 400 mg/37.5 mg (95 patients) • Group 2: ibuprofen arginate 400 mg (97 patients) • Group 3: tramadol HCl 50 mg (98 patients) • Group 4: placebo (93 patients)
as §2
The combination of ibuprofen arginate/tramadol HCl administered to the patients of Group 1 was in the form of a granulate for oral administration (as described in Example 4). Each dosage comprised 340 mg of L-arginine.
The ibuprofen arginate 400 mg administered to the patients of Group 2 corresponded to the commercial medicine Espidifen® 400 mg, each dose comprising 400 mg of ibuprofen, given as 770 mg of ibuprofen arginate.
The 50 mg dose of tramadol HCl 50 mg of Group 3 was administered using the commercial medicine Adolonta® 100 mg/ml oral solution.
After the dental surgery, the pain intensity of each patient was evaluated according to the VAS test until reaching the value ≥45 mm. At that moment, the patient was assigned to one of the four groups in a randomized way and the corresponding medication was administered. A new VAS test was performed after the administration of the first dose of the medication, which was taken as the basal value. 4 doses of each medication were administered, with an interval of 6 hours between doses.
After the administration of each medication, the evolution of patients was followed until 24 hours after the first dosage, by assessing the change in pain intensity.
Patients were allowed to ask for rescue medication during that period, starting 30 minutes after the administration of the first dosage. […]
Pain intensity was assessed for each patient at the following time points: 0 (basal), 1, 2, 3, 4, 5, 6, 8, 12 and 24 hours after the administration of the medication. For each of the four groups, the average VAS value was calculated.

COc1cccc([C@]2(O)CCCC[C@H]2CN(C)C)c1 (racemic) [tramadol HCl, (±)-cis-2-[(dimethylamino)methyl]-1-(3-methoxyphenyl) cyclohexanol]
Total rescued patients (number) [1]: 31
Total rescued patients (%) [1]: 31.6%
Rescued patients at 24 h (%) [1]: 28.6%
Rescued patients at 24 h (number) [1]: 28
Average time until rescue [1]: 8.97 h
number of adverse effects reported relative to Group 1 (ibuprofen/tramadol) [1]: twice
Number of rescued patients ([2]; iv, 4 hours follow-up, N = 16/18/18, tramadol HCl alone 100 mg): 9
% of rescued patients ([2]; iv, 4 hours follow-up, tramadol HCl alone 100 mg): 50.0%
Number of patients reporting AE ([2]; iv, N = 16/18/18, tramadol HCl alone 100 mg): 5
% of patients reporting AE ([2]; iv, tramadol HCl alone 100 mg): 27.8%
Average time until rescue ([2]; iv, tramadol HCl alone 100 mg): 70 min
Number of AE ([2]; iv, tramadol HCl alone 100 mg): 9
VAS (average value) ([2]; 15 min after administration, tramadol HCl alone 100 mg): 48.55 mm
VAS (average value) ([2]; 30 min, tramadol HCl alone 100 mg): 45.28 mm
VAS (average value) ([2]; 45 min, tramadol HCl alone 100 mg): 47.11 mm
VAS (average value) ([2]; 60 min, tramadol HCl alone 100 mg): 51.67 mm
VAS (average value) ([2]; 75 min, tramadol HCl alone 100 mg): 54.72 mm
VAS (average value) ([2]; 90 min, tramadol HCl alone 100 mg): 54.44 mm
VAS (average value) ([2]; 105 min, tramadol HCl alone 100 mg): 53.67 mm
VAS (average value) ([2]; 120 min, tramadol HCl alone 100 mg): 51.55 mm
VAS (average value) ([2]; 150 min, tramadol HCl alone 100 mg): 49.39 mm
VAS (average value) ([2]; 180 min, tramadol HCl alone 100 mg): 47.94 mm
VAS (average value) ([2]; 210 min, tramadol HCl alone 100 mg): 46.72 mm
VAS (average value) ([2]; 240 min, tramadol HCl alone 100 mg): 44.50 mm
VAS (average value) ([2]; time 0 min (basal), tramadol HCl alone 100 mg): 72.83 mm
Number of rescued patients [3]: 38
% of rescued patients [3]: 38.8%

CC(C)Cc1ccc(C(C)C(=O)O)cc1 (racemic) [ibuprofen arginate, (RS)-2-(4-(2-methylpropyl)phenyl)propanoic acid]
Total rescued patients (number) [1]: 23
Total rescued patients (%) [1]: 24.5%
Rescued patients at 24 h (%) [1]: 22.3%
Rescued patients at 24 h (number) [1]: 21
Average time until rescue [1]: 8.43 h
Number of rescued patients [3]: 6
% of rescued patients [3]: 6.2%
